Data published in PubChem BioAssay AID248 (DTP/NCI, 2004).
“And” between values parts separate entries of the source, which are not always exact repeats. Identical values can stand only once. Inconclusive results and toxic doses are left out.

Test system: L1210 leukemia ip in BDF1 mice, survival T/C
Assay: NCI In Vivo Anticancer Drug Screen. Data for tumor model L1210 Leukemia (intraperitoneal) in B6D2F1 (BDF1) mice
Conditions: endpoint: mean survival time, higher = longer survival
Outline: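 Survival endpoint. Drug-treated group vs vehicle group, expressed as T divided by C. Tumor passaged by transplantation.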

[1] = dose: 100.0 mg/kg/injection, schedule: Q01DX009 (ip), vehicle: saline with Tween-80
[2] = dose: 200.0 mg/kg/injection, schedule: Q01DX009 (ip), vehicle: saline with Tween-80
[3] = dose: 100.0 mg/kg/injection, schedule: Q04DX003 (ip), vehicle: Klucel (hydroxypropylcellulose) (HPC)
[4] = dose: 200.0 mg/kg/injection, schedule: Q04DX003 (ip), vehicle: Klucel (hydroxypropylcellulose) (HPC)
[5] = dose: 100.0 mg/kg/injection, schedule: Q04DX003 (ip), vehicle: saline with Tween-80
[6] = dose: 200.0 mg/kg/injection, schedule: Q04DX003 (ip), vehicle: saline with Tween-80

Cc1ccc(NC(C(=O)O)c2ccccc2)cc1 (centres undefined)
T/C (dose: 100.0 mg/kg/injection, schedule: Q04DX002 (ip), vehicle: Klucel (hydroxypropylcellulose) (HPC)): 104 % of control
T/C (dose: 200.0 mg/kg/injection, schedule: Q04DX002 (ip), vehicle: Klucel (hydroxypropylcellulose) (HPC)): 111 % of control

OC(CF)CF
T/C (dose: 25.0 mg/kg/injection, schedule: Q01DX009 (ip), vehicle: saline): 115 % of control
T/C (dose: 100.0 mg/kg/injection, schedule: Q01DX009 (ip), vehicle: saline): 103 % of control

COc1cccc(C2CCCCC2O)c1 (centres undefined)
T/C (dose: 50.0 mg/kg/injection, schedule: Q01DX009 (ip), vehicle: saline with Tween-80): 90 % of control
T/C [1]: 93 % of control
T/C [2]: 96 % of control

CN(C)C(=S)Oc1ccc(N)cc1
T/C [3]: 94 % of control
T/C [4]: 101 % of control
T/C (dose: 400.0 mg/kg/injection, schedule: Q04DX003 (ip), vehicle: Klucel (hydroxypropylcellulose) (HPC)): 94 % of control

COC1OC(CCl)C(Cl)CC1OC(C)=O (centres undefined)
T/C (dose: 100.0 mg/kg/injection, schedule: Q04DX003 (ip), vehicle: saline): 95 % of control
T/C (dose: 200.0 mg/kg/injection, schedule: Q04DX003 (ip), vehicle: saline): 90 % of control
T/C (dose: 400.0 mg/kg/injection, schedule: Q04DX003 (ip), vehicle: saline): 98 % of control

CCCCCCC(=O)/C=C/c1ccc(N(C)C)cc1
T/C (dose: 100.0 mg/kg/injection, schedule: Q01DX001 (sc), vehicle: steriod suspending solution): 97 % of control
T/C (dose: 100.0 mg/kg/injection, schedule: Q04DX003 (sc), vehicle: steriod suspending solution): 105 % of control
T/C (dose: 200.0 mg/kg/injection, schedule: Q01DX001 (sc), vehicle: steriod suspending solution): 105 % of control
T/C (dose: 200.0 mg/kg/injection, schedule: Q04DX003 (sc), vehicle: steriod suspending solution): 103 % of control
T/C (dose: 400.0 mg/kg/injection, schedule: Q01DX001 (sc), vehicle: steriod suspending solution): 97 % of control
T/C (dose: 400.0 mg/kg/injection, schedule: Q04DX003 (sc), vehicle: steriod suspending solution): 102 % of control

Cc1cc2[nH]c(=O)c(=O)[nH]c2cc1C
T/C (dose: 50.0 mg/kg/injection, schedule: Q04DX003 (ip), vehicle: Klucel (hydroxypropylcellulose) (HPC)): 104 % of control
T/C (dose: 100.0 mg/kg/injection, schedule: Q01DX009 (ip), vehicle: Klucel (hydroxypropylcellulose) (HPC)): 105 % of control
T/C [3]: 94 % of control
T/C (dose: 200.0 mg/kg/injection, schedule: Q01DX009 (ip), vehicle: Klucel (hydroxypropylcellulose) (HPC)): 100 % of control
T/C [4]: 100 % of control

CCC(CC)(C1CCC(O)CC1)C1CCC(O)CC1 (centres undefined)
T/C (dose: 75.0 mg/kg/injection, schedule: Q01DX001 (ip), vehicle: carboxymethylcellulose (CMC)): 93 % of control
T/C (dose: 150.0 mg/kg/injection, schedule: Q01DX001 (ip), vehicle: carboxymethylcellulose (CMC)): 91 % of control
T/C (dose: 300.0 mg/kg/injection, schedule: Q01DX001 (ip), vehicle: carboxymethylcellulose (CMC)): 89 % of control

Cc1nc(-c2ccc(N=Cc3ccc(N(CCOS(C)(=O)=O)CCOS(C)(=O)=O)cc3)cc2)c(C)s1
T/C (dose: 2.5 mg/kg/injection, schedule: Q04DX003 (ip), vehicle: Klucel (hydroxypropylcellulose) (HPC)): 109 % of control
T/C (dose: 5.0 mg/kg/injection, schedule: Q04DX003 (ip), vehicle: Klucel (hydroxypropylcellulose) (HPC)): 111 % of control
T/C (dose: 10.0 mg/kg/injection, schedule: Q04DX003 (ip), vehicle: Klucel (hydroxypropylcellulose) (HPC)): 122 % of control
T/C (dose: 40.0 mg/kg/injection, schedule: Q04DX003 (ip), vehicle: Klucel (hydroxypropylcellulose) (HPC)): 171 % of control
T/C (dose: 80.0 mg/kg/injection, schedule: Q04DX003 (ip), vehicle: Klucel (hydroxypropylcellulose) (HPC)): 117 % of control
T/C [3]: 100 % of control

CCCCOC(=O)c1ccccn1
T/C [5]: 99 % of control
T/C [6]: 94 % of control

CCOC(=O)c1ccc(NC(=O)Oc2ccccc2C(C)C)cc1
T/C [1]: 97 % of control and 107 % of control
T/C (dose: 100.0 mg/kg/injection, schedule: Q04DX002 (ip), vehicle: saline with Tween-80): 101 % of control
T/C [5]: 97 % of control
T/C [2]: 93 % of control and 97 % of control
T/C (dose: 200.0 mg/kg/injection, schedule: Q04DX002 (ip), vehicle: saline with Tween-80): 92 % of control
T/C [6]: 93 % of control
T/C (dose: 400.0 mg/kg/injection, schedule: Q01DX009 (ip), vehicle: saline with Tween-80): 89 % of control
T/C (dose: 400.0 mg/kg/injection, schedule: Q04DX002 (ip), vehicle: saline with Tween-80): 92 % of control
T/C (dose: 400.0 mg/kg/injection, schedule: Q04DX003 (ip), vehicle: saline with Tween-80): 102 % of control
